Test [1] concerns the target human norepinephrine transporter (NET) (Homo sapiens, UniProt P23975). As to the kind of experiment: Binding assay to human norepinephrine transporter (NET) ([3H]-Nisoxetin). Conditions: Table 2, dual compounds, human NET enriched membranes, read-out: Ki(nM) NET Hum. As for the experimental part:
(§1) Readings were performed in a Trilux 1450 Microbeta radioactive counter (Perkin Elmer). • Binding assay to human norepinephrine transporter (NET).
Human norepinephrine transporter (NET) enriched membranes (5 μg) were incubated with 5 nM of radiolabeled [3H]-Nisoxetin in assay buffer containing 50 mM Tris-HCl, 120 mM NaCl, 5 mM KCl, pH 7.4.
NSB (non specific binding) was measured by adding 10 μM desipramine. The binding of the test compound was measured at five different concentrations. After 60 min incubation at 4° C., binding reaction was terminated by filtering through Multiscreen GF/C (Millipore) presoaked in 0.5% polyethyleneimine in Vacuum Manifold Station, followed by 3 washes with ice-cold filtration buffer containing 50 mM Tris-HCl, 0.9% NaCl, pH 7.4.
(§2) Filter plates were dried at 60° C. for 1 h and 30 μl of scintillation cocktail were added to each well before radioactivity reading.
Readings were performed in a Trilux 1450 Microbeta radioactive counter (Perkin Elmer).

The target of test [2] is human α2δ-1 subunit of Cav2.2 calcium channel (Homo sapiens, UniProt P54289). As to the kind of experiment: Binding assay to human α2δ-1 subunit of Cav2.2 calcium channel ([3H]-Gabapentin). Particulars: read-out: Ki(nM) alpha2delta Hum. As for the experimental part: • Binding assay to human α2δ-1 subunit of Cav2.2 calcium channel.
Human α2δ-1 enriched membranes (2.5 μg) were incubated with 15 nM of radiolabeled [3H]-Gabapentin in assay buffer containing Hepes-KOH 10 mM, pH 7.4.
NSB (non specific binding) was measured by adding 10 μM pregabalin. The binding of the test compound was measured at five different concentrations. After 60 min of incubation at 27° C., the binding reaction was terminated by filtering through Multiscreen GF/C (Millipore) presoaked in 0.5% polyethyleneimine in Vacuum Manifold Station, followed by 3 washes with ice-cold filtration buffer containing 50 mM Tris-HCl, pH 7.4.
as §2, §1

[3] abbreviates: Table 1, human α2δ-1 enriched membranes.
The mark [4] stands for this setting: Table 2, dual compounds, human α2δ-1 enriched membranes.

Like-named read-outs stand apart in the source and are kept apart here.

This note sets out measurements from US20190345146A1, “NITROGEN CONTAINING BICYCLIC DERIVATIVES FOR TREATING PAIN AND PAIN RELATED CONDITIONS” (ESTEVE PHARMACEUTICALS, S.A., priority 2016, published 2019).

Sequence of human α2δ-1 subunit of Cav2.2 calcium channel (P54289 25-1103): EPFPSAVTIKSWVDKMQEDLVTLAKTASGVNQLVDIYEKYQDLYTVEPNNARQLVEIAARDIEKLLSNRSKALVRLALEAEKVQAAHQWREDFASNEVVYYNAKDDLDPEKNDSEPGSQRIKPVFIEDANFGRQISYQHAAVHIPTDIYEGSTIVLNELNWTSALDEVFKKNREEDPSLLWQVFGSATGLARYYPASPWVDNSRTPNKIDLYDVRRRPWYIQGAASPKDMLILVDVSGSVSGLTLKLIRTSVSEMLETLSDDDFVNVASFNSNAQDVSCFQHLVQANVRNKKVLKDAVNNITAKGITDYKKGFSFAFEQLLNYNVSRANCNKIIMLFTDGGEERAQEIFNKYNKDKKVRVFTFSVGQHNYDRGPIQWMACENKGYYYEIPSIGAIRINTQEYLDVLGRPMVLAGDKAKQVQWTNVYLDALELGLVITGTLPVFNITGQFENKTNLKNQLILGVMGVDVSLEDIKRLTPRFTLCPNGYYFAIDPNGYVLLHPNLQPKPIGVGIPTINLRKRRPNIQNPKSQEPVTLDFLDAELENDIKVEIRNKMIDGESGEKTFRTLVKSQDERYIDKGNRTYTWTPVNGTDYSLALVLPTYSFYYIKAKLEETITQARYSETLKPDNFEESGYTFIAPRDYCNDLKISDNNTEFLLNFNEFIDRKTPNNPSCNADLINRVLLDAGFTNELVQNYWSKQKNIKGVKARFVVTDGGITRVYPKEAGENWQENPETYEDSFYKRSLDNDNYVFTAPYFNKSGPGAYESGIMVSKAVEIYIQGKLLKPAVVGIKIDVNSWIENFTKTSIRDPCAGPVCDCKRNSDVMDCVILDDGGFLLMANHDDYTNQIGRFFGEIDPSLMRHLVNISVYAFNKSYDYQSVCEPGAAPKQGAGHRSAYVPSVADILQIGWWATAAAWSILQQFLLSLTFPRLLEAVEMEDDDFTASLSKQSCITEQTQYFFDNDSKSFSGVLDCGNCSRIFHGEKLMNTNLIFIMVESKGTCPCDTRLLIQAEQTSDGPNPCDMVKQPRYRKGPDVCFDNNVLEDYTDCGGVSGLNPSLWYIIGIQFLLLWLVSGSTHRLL
Sequence of human norepinephrine transporter (NET) (P23975 whole entry): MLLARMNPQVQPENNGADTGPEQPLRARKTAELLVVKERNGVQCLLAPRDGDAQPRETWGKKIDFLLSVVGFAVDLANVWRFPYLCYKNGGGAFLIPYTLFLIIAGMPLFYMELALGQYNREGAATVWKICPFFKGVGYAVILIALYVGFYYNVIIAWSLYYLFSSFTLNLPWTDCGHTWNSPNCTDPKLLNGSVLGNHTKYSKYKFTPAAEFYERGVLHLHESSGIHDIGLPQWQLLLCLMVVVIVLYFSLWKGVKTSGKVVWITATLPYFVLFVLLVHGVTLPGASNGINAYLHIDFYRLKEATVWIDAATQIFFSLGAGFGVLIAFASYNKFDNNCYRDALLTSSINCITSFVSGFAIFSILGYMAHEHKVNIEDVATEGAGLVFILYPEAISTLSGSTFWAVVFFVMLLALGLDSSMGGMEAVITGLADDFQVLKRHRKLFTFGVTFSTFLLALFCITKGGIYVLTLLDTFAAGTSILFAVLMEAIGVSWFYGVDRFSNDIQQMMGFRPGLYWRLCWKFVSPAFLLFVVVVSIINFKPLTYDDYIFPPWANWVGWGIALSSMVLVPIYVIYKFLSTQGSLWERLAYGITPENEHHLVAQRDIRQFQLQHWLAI

In the case of `CNCCC(Oc1cccc2c1CCCN2C)c1cccs1` (stereo not drawn) [Example 1, N-Methyl-3-((1-methyl-1,2,3,4-tetrahydroquinolin-5-yl)oxy)-3-(thiophen-2-yl)propan-1-amine], the Ki lay within 500 to 1000 nM in test [1], 100 to 500 nM in test [2] (setting [3]) and 100 to 500 nM in test [2] (setting [4]).

Take `CNCCC(Oc1cccc2c1CCN(CC(F)F)C2)c1cccs1` (stereo not drawn) [Example 3, 3-((2-(2,2-difluoroethyl)-1,2,3,4-tetrahydroisoquinolin-5-yl)oxy)-N-methyl-3-(thiophen-2-yl)propan-1-amine]: the figures for the Ki in test [1], in test [2] (setting [3]) and in test [2] (setting [4]) were 500 to 1000 nM, 100 to 500 nM and 100 to 500 nM, respectively.
